# Tested on: HCMV engineered virus RC256
# Assay: microbe, parasite or virus in culture
# Type: cell-based, human cytomegalovirus
# Conditions: Human betaherpesvirus 5, Fibroblast, read-out: Antiviral Activity RC256, first value (EC50)
row,SMILES,EC50
1,"Cc1cccc2nc(N[C@@H](C)C(=O)OC(C)(C)C)oc(=O)c12 [Example 1, N-(5-Methyl-4-oxo-4H-3,1-benzoxazin-2-yl)-L-alanine, tert-butyl Ester]",100 µM
2,"COC(=O)[C@@H](C)Nc1nc2cccc(C)c2c(=O)o1 [Example 1c, N-(5-Methyl-4-oxo-4H-3,1-benzoxazin-2-yl)-D-alanine, methyl ester]",> 100 µM
3,"Cc1cccc2nc(N[C@@H](CCCCNC(=O)OCc3ccccc3)C(=O)OC(C)(C)C)oc(=O)c12 [Example 1i, N^α-(5-Methyl-4-oxo-4H-3,1-benzoxazin-2-yl)-N^ε-[(phenylmethoxy)carbonyl)-L-lysine, 1,1-dimethylethyl ester]",9 µM
4,"COC(=O)[C@H](Cc1ccccc1)Nc1nc2cccc(C)c2c(=O)o1 [Example 1k, N-(5-Methyl-4-oxo-4H-3,1-benzoxazin-2-yl)-L-phenylalanine, methyl ester]",> 100 µM
5,"Cc1cccc2nc(N[C@@H](Cc3ccc(O)cc3)C(=O)OC(C)(C)C)oc(=O)c12 [Example 1l, N-(5-Methyl-4-oxo-4H-3,1-benzoxazin-2-yl)-L-tyrosine, 1,1-dimethylethyl ester]",35 µM
6,"COC(=O)[C@H](Cc1c[nH]c2ccccc12)Nc1nc2cccc(C)c2c(=O)o1 [Example 1m, N-(5-Methyl-4-oxo-4H-3,1-benzoxazin-2-yl)-L-tryptophan, methyl ester]",56 µM
7,"Cc1cccc2nc(N[C@H](C(=O)OC(C)(C)C)c3ccccc3)oc(=O)c12 [Example 1o, N-(5-Methyl-4-oxo-4H-3,1-benzoxazin-2-yl)-L-phenylglycine, 1,1-dimethylethyl ester]",10 µM
8,"COC[C@H](Cc1ccccc1)Nc1nc2cccc(C)c2c(=O)o1 [Example 1p, 2-[[2-Methoxy-(1S)-(1-phenylmethyl)ethyl]amino]-5-methyl-4H-3,1-benzoxazin-4-one]",38 µM
9,"COC(=O)[C@H](Cc1ccc(OC)cc1)Nc1nc2cccc(C)c2c(=O)o1 [Example 1r, N-(5-Methyl-4-oxo-4H-3,1-benzoxazin-2-yl)-O-methyl-L-tyrosine, methyl ester]",59 µM
10,"COc1ccc(C[C@H](Nc2nc3cccc(C)c3c(=O)o2)C(=O)N(C)Cc2ccccc2)cc1 [Example 1s, αS-[(5-Methyl-4-oxo-4H-3,1-benzoxazin-2-yl)amino]-4-methoxy-N-methyl-N-(phenylmethyl)benzenepropanamide]",7 µM
11,"COc1ccc(C[C@H](Nc2nc3cccc(OC)c3c(=O)o2)C(=O)N(C)Cc2ccccc2)cc1 [Example 1u, N-[5-Methoxy-4-oxo-4H-3,1-benzoxazin-2-yl]-O-methyl-L-tyrosine, N-methyl-N-phenylmethylamide]",14 µM
12,"Cc1cccc2nc(N[C@H](C)c3ccccc3)oc(=O)c12 [Example 3c, 5-Methyl-2-[[(1R)-1-phenylethyl]amino]-4H-3,1-benzoxazin-4-one]",17 µM
13,"COC(=O)[C@H](Cc1ccccc1)Nc1nc2ccc(NC(=O)OC(C)(C)C)c(C)c2c(=O)o1 [Example 6a, N-[6-[[(1,1-Dimethylethoxy]carbonyl]amino]-5-methyl-4-oxo-4H-3,1-benzoxazin-2-yl]-L-phenylalanine, methyl ester]",71 µM
14,"Cc1c(NC(=O)OC(C)(C)C)ccc2nc(N[C@@H](Cc3ccc(I)cc3)C(=O)N(C)C)oc(=O)c12 [Example 6cc, 1,1-Dimethylethyl[2-[[2-(dimethylamino)-1S-[(4-iodophenyl)methyl]-2-oxoethyl]amino]-5-methyl-4-oxo-4H-3,1-benzoxazin-6-yl]carbamate]",40 µM
15,"COc1ccc(C[C@H](Nc2nc3ccc(NC(=O)OC(C)(C)C)c(C)c3c(=O)o2)C(=O)N(C)C)cc1 [Example 6d, N-[6-[[(1,1-Dimethylethoxy)carbonyl]amino]-5-methyl-4-oxo-4H-3,1-benzoxazin-2-yl]-O-methyl-L-tyrosine, dimethylamide]",45 µM
16,"CCN(CC)C(=O)[C@H](Cc1ccccc1)Nc1nc2ccc(NC(=O)OC(C)(C)C)c(C)c2c(=O)o1 [Example 6ee, 1,1-Dimethylethyl[2-[[2-(diethylamino)-2-oxo-1S-(phenylmethyl)ethyl]amino]-5-methyl-4-oxo-4H-3,1-benzoxazin-6-yl]carbamate]",26 µM
17,"COc1ccc(C[C@H](Nc2nc3ccc(NC(=O)OC(C)(C)C)c(C)c3c(=O)o2)C(=O)NCc2ccccn2)cc1 [Example 6gg, 1,1-Dimethylethyl[2-[[1S-[(4-methoxphenyl)methyl]-2-oxo-2-[[(2-pyridinyl)methyl]amino]ethyl]amino]-5-methyl-4-oxo-4H-3,1-benzoxazin-6-yl]carbamate]",6.5 µM

row,SMILES,EC50
1,"COc1ccc(C[C@H](Nc2nc3ccc(NC(=O)OC(C)(C)C)c(C)c3c(=O)o2)C(=O)N2CCOCC2)cc1 [Example 6i, N-[6-[[(1,1-Dimethylethoxy)carbonyl]amino]-5-methyl-4-oxo-4H-3,1-benzoxazin-2-yl]-O-methyl-L-tyrosine, morpholineamide]",48 µM
2,"Cc1c(NC(=O)OC(C)(C)C)ccc2nc(N[C@H](C)c3ccccc3)oc(=O)c12 [Example 6n, 6-[[(1,1-Dimethylethoxy)carbonyl]amino]-5-methyl-2-[[(1R)-phenylethyl]amino]-4H-3,1-benzoxazin-4-one]",10 µM
3,"Cc1c(NC(=O)OC(C)(C)C)ccc2nc(N[C@@H](Cc3c[nH]c4ccccc34)C(=O)N(C)C)oc(=O)c12 [Example 6o, N-[6-[[(1,1-Dimethylethoxy)carbonyl]amino]-5-methyl-4-oxo-4H-3,1-benzoxazin-2-yl]-L-tryptophan, dimethylamide]",59 µM
4,"COC(=O)[C@H](Cc1cc(I)c(OC)c(I)c1)Nc1nc2ccc(NC(=O)OC(C)(C)C)c(C)c2c(=O)o1 [Example 6s, N-[6-[[(1,1-Dimethylethoxy)carbonyl]amino]-5-methyl-4-oxo-4H-3,1-benzoxazin-2-yl]-3,5-diiodo-O-methyl-L-tyrosine, methyl ester]",18 µM
5,"COC(=O)[C@H](Cc1ccc(I)cc1)Nc1nc2ccc(NC(=O)OC(C)(C)C)c(C)c2c(=O)o1 [Example 6t, N-[6-[[(1,1-Dimethylethoxy)carbonyl]amino]-5-methyl-4-oxo-4H-3,1-benzoxazin-2-yl]-4-iodo-L-phenylalanine, methyl ester]",17 µM
6,"COC(=O)C(C)(C)Nc1nc2ccc(NC(=O)OC(C)(C)C)c(C)c2c(=O)o1 [Example 6w, N-[6-[[(1,1-Dimethylethoxy)carbonyl]amino]-5-methyl-4-oxo-4H-3,1-benzoxazin-2-yl]-2-aminoisobutyric acid, methyl ester]",> 100 µM
7,"COc1ccc(C[C@H](Nc2nc3ccc(CNC(=O)OC(C)(C)C)c(C)c3c(=O)o2)C(=O)N2CCOCC2)cc1 [Example 7h, 1,1-Dimethylethyl[[2-[[1S-[(4-methoxyphenyl)methyl]-2-(4-morpholinyl)-2-oxoethyl]amino]-5-methyl-4-oxo-4H-3,1-benzoxazin-6-yl]methyl]carbamate]",16 µM
8,"COc1ccc(C[C@H](Nc2nc3ccc(CNC(=O)OC(C)(C)C)c(C)c3c(=O)o2)C(=O)N(C)Cc2ccccc2)cc1 [Example 7i, 1,1-Dimethylethyl[[2-[[1S-[(4-methoxyphenyl)methyl]-2-[methyl(phenylmethyl)amino]-2-oxoethyl]amino]-5-methyl-4-oxo-4H-3,1-benzoxazin-6-yl]methyl]carbamate]",30 µM
9,"CCN(Cc1ccccc1)C(=O)[C@H](Cc1ccccc1)Nc1nc2ccc(CNC(=O)OC(C)(C)C)c(C)c2c(=O)o1 [Example 7l, 1,1-Dimethylethyl[[2-[[2-[ethyl(phenylmethyl)amino]-2-oxo-1S-(phenylmethyl)ethyl]amino]-5-methyl-4-oxo-4H-3,1-benzoxazin-6-yl]methyl]carbamate]",13 µM
10,"Cc1c(CNC(=O)OC(C)(C)C)ccc2nc(N[C@@H](Cc3ccccc3)C(=O)N(C)Cc3cccnc3)oc(=O)c12 [Example 7s, 1,1-Dimethylethyl[[5-methyl-2-[[2-[methyl[(3-pyridinyl)methyl]amino]-1S-(phenylmethyl)-2-oxoethyl]amino]4-oxo-4H-3,1-benzoxazin-6-yl]methyl]carbamate]",16 µM
11,"CCN(Cc1ccccc1)C(=O)[C@H](Cc1ccccc1)Nc1nc2ccc(N)c(C)c2c(=O)o1 [Example 8f, αS-[(6-Amino-5-methyl-4-oxo-4H-3,1-benzoxazin-2-yl)amino]-N-ethyl-N-(phenylmethyl)benzenepropanamide]",17 µM
12,"CCN(Cc1ccccc1)C(=O)[C@H](Cc1ccccc1)Nc1nc2c(Br)cc(N)c(C)c2c(=O)o1 [Example 8g, αS-[(6-Amino-8-bromo-5-methyl-4-oxo-4H-3,1-benzoxazin-2-yl)amino]-N-ethyl-N-(phenylmethyl)benzenepropanamide]",8.5 µM
13,"COc1ccc(C[C@H](Nc2nc3ccc(N)c(C)c3c(=O)o2)C(=O)N(C)Cc2ccccc2)cc1 [Example 8h, αS-[(6-amino-5-methyl-4-oxo-4H-3,1-benzoxazin-2-yl)amino]-N-methyl-4-methoxy-N-(phenylmethyl)benzenepropanamide]",100 µM
14,"Cc1c(CNC(=O)CCc2ccccc2)ccc2nc(N[C@@H](Cc3ccccc3)C(=O)N(C)Cc3cccnc3)oc(=O)c12 [Example 9aa, N-Methyl-αS-[[5-methyl-4-oxo-6-[[(1-oxo-3-phenylpropyl)amino]methyl]-4H-3,1-benzoxazin-2-yl]amino]-N-(3-pyridinylmethyl)benzenepropanamide]",33 µM
15,"COc1ccc(C[C@H](Nc2nc3ccc(CNC(=O)CN4CCCC4)c(C)c3c(=O)o2)C(=O)N(C)Cc2ccccc2)cc1 [Example 9c, N-[[2-[[1S-[(4-Methoxyphenyl)methyl]-2-[methyl(phenylmethyl)amino]-2-oxoethyl]amino]-5-methyl-4-oxo-4H-3,1-benzoxazin-6-yl]methyl]pyrrolidine-1-acetamide]",9 µM
16,"COc1ccc(C[C@H](Nc2nc3ccc(CNC(=O)CCc4cccnc4)c(C)c3c(=O)o2)C(=O)N(C)Cc2ccccc2)cc1 [Example 9d, N-[[2-[[1S-[(4-Methoxyphenyl)methyl]-2-[methyl(phenylmethyl)amino]-2-oxoethyl]amino]-5-methyl-4-oxo-4H-3,1-benzoxazin-6-yl]methyl]pyridine-3-propanamide]",41 µM

# From patent US6683077B2, “2-Amino-benzoxazinones for the treatment of viral infections” (G.D. Searle & Co., priority 1996, dated 2004)
